“Also recorded” adds a separate entry of the source.
System: elevated heart rate
Assay: In vivo dog experiments: heart rate offset after iontophoretic ESA drug with pretreatment (Example A)
Set-up: species or system labrador dogs
Settings: for Offset Slope Component (0-5) min: 0-5 min after heart rate begins to decline; for Offset Slope Component (5-10) min: 5-10 min after decline begins; for Offset Slope Component (10-30) min: 10-30 min after decline begins; for Change in Heart Rate (peak minus baseline) / Peak Heart Rate: Table II; for Total time (startup) thru offset plateau: w/in 20 bpm of baseline / Total time (startup) thru offset plateau: in words / t 1/2 of elevated heart rate decay / Total time (startup) thru offset plateau: w/in 10 bpm of baseline: Table IV; for Onset Slope: baseline at onset time to peak heart rate; for Offset time: drug delivery stopped until within 20 bpm of baseline; for Offset Slope: drug shut-off to 20 bpm above baseline; for Delay: drug shut-off to start of heart rate decline; for t 1/2 of elevated heart rate decay: exponential fit; for Reduction in offset time: iontophoretic pre-delivery; for Onset time: start of delivery to start of increase in heart rate; for Time Start Decline: time when elevated heart rate began to decline

COC(=O)c1cccnc1 [Methyl Nicotinate, methyl ester of nicotinic acid]
Offset Slope Component (0-5) min (listed as 9): -2.40 beats per minute per minute | Offset Slope Component (0-5) min (listed as 10): -1.40 beats per minute per minute | Offset Slope Component (5-10) min (listed as 9): -0.40 beats per minute per minute | Offset Slope Component (5-10) min (listed as 10): -2.40 beats per minute per minute | Offset Slope Component (10-30) min (listed as 9): -0.28 beats per minute per minute | Offset Slope Component (10-30) min (listed as 10): -1.90 beats per minute per minute | Change in Heart Rate (peak minus baseline) (listed as 9): 55 bpm | Peak Heart Rate (listed as 9): 117 bpm | Change in Heart Rate (peak minus baseline) (listed as 10): 81 bpm | Peak Heart Rate (listed as 10): 152 bpm | Total time (startup) thru offset plateau: w/in 20 bpm of baseline: 55 min | Total time (startup) thru offset plateau: in words (listed as 9): Never Reached w/in 20 bpm of baseline | Total time (startup) thru offset plateau: in words (listed as 10): never lower | Onset Slope (listed as 9): 4.20 beats per minute per minute | Onset Slope (listed as 10): 12.30 beats per minute per minute | Offset time (listed as 9): 29.00 min | Offset time (listed as 10): 31.00 min | Offset Slope (listed as 9): -0.40 beats per minute per minute | Offset Slope (listed as 10): -1.70 beats per minute per minute | Delay (listed as 9): 6.50 min | Delay (listed as 10): 2.50 min | t 1/2 of elevated heart rate decay: 21.36 min | Reduction in offset time: also reduce offset time | Onset time (listed as 9): 15.00 min | Onset time (listed as 10): 7.00 min | Time Start Decline (listed as 9): 25.00 min | Time Start Decline (listed as 10): 20.50 min

CC[C@@H]1C(=O)OC[C@@H]1Cc1cncn1C [Pilocarpine]
Offset Slope Component (0-5) min (listed as 7): -1.70 beats per minute per minute | Offset Slope Component (0-5) min (listed as 8): -7.60 beats per minute per minute | Offset Slope Component (5-10) min (listed as 7): -2.50 beats per minute per minute | Offset Slope Component (5-10) min (listed as 8): -1.40 beats per minute per minute | Percent decline in heart rate, ranking (5-10 minute interval, FIG. 1): next highest percent declines | Offset Slope Component (10-30) min (listed as 7): -1.10 beats per minute per minute | Offset Slope Component (10-30) min (listed as 8): -1.00 beats per minute per minute | Delay to onset of heart rate decline, ranking (FIG. 2): shortest delay | Change in Heart Rate (peak minus baseline) (listed as 7): 73 bpm | Peak Heart Rate (listed as 7): 133 bpm | Change in Heart Rate (peak minus baseline) (listed as 8): 114 bpm | Peak Heart Rate (listed as 8): 191 bpm | Total time (startup) thru offset plateau: in words: Never reached w/in 20 bpm of baseline | Total time (startup) thru offset plateau: w/in 20 bpm of baseline: 60 min | Onset Slope (listed as 7): 11.60 beats per minute per minute | Onset Slope (listed as 8): 11.20 beats per minute per minute | Offset time (listed as 7): 38.00 min | Offset time (listed as 8): 36.00 min | Offset Slope (listed as 7): -1.10 beats per minute per minute | Offset Slope (listed as 8): -1.70 beats per minute per minute | Delay (listed as 7): 1.30 min | Delay (listed as 8): 5.30 min | t 1/2 of elevated heart rate decay (listed as 7): 28.85 min | t 1/2 of elevated heart rate decay (listed as 8): 21.36 min | Reduction in offset time: also reduce offset time | Onset time (listed as 7): 6.70 min | Onset time (listed as 8): 13.00 min | Time Start Decline (listed as 7): 23.80 min | Time Start Decline (listed as 8): 24.30 min

CC(COc1ccccc1)N(CCCl)Cc1ccccc1 (stereo not drawn) [Phenoxybenzamine]
Offset Slope Component (0-5) min (listed as 18): -4.20 beats per minute per minute | Offset Slope Component (0-5) min (listed as 19): -4.90 beats per minute per minute | Offset Slope Component (5-10) min (listed as 18): 0.02 beats per minute per minute | Offset Slope Component (5-10) min (listed as 19): -2.00 beats per minute per minute | Offset Slope Component (10-30) min (listed as 18): -0.53 beats per minute per minute | Offset Slope Component (10-30) min (listed as 19): -1.80 beats per minute per minute | Change in Heart Rate (peak minus baseline) (listed as 18): 57 bpm | Peak Heart Rate (listed as 18): 117 bpm | Change in Heart Rate (peak minus baseline) (listed as 19): 79 bpm | Peak Heart Rate (listed as 19): 149 bpm | Total time (startup) thru offset plateau: w/in 10 bpm of baseline (listed as 18): 60 min | Total time (startup) thru offset plateau: w/in 10 bpm of baseline (listed as 19): 48 min | Onset Slope (listed as 18): 3.70 beats per minute per minute | Onset Slope (listed as 19): 13.90 beats per minute per minute | Offset time (listed as 18): 30.00 min | Offset time (listed as 19): 25.80 min | Offset Slope (listed as 18): -0.80 beats per minute per minute | Offset Slope (listed as 19): -2.30 beats per minute per minute | Delay (listed as 18): 10.00 min | Delay (listed as 19): 3.50 min | t 1/2 of elevated heart rate decay (listed as 18): 16.96 min | t 1/2 of elevated heart rate decay (listed as 19): 11.52 min | Reduction in offset time: found effective when pre-delivered iontophoretically; also recorded: also reduce offset time | Onset time (listed as 18): 18.00 min | Onset time (listed as 19): 7.40 min | Time Start Decline (listed as 18): 28.00 min | Time Start Decline (listed as 19): 22.00 min

Cc1ccc(N(CC2=NCCN2)c2cccc(O)c2)cc1 [Phentolamine]
Reduction in offset time: found effective when pre-delivered iontophoretically
